# Experimental data reported in ChEMBL document CHEMBL1145309, “Synthesis of biotinylated photoaffinity probes based on arylsulfonamide gamma-secretase inhibitors” (Bioorg Med Chem Lett, 2006).
# Key:
# Assay type in all cases: protein-complex assay
# Gamma-secretase = assay: Inhibition of beta amyloid protein 40 production
# [1] = molecular target: T1, Gamma-secretase (Homo sapiens) (UniProt Q96BI3+Q9NZ42+Q8WW43+P49768+Q92542+P49810); assay: Inhibition of beta amyloid protein 40 production relative to 4-chloro-N-(2,5-difluorophenyl)-N-(1-(2-(3-(pyrrolidin-1-yl)propoxy)phenyl)ethyl)benzenesulfonamide
# [2] = molecular target: T1, Gamma-secretase (Homo sapiens); assay: Inhibition of beta amyloid protein 40 production relative to 4-chloro-N-phenyl-N-(1-(2-(3-(pyrrolidin-1-yl)propoxy)phenyl)ethyl)benzenesulfonamide
SMILES,IC50 (Gamma-secretase),Ratio IC50 [1],Ratio IC50 [2]
CC(c1ccccc1OCCCN1CCOCC1)N(c1cc(F)ccc1F)S(=O)(=O)c1ccc(Cl)cc1 (centres undefined),4400 nM,–,–
CC(c1ccccc1OCCCN1CCCC1)N(c1ccc(Cl)cc1)S(=O)(=O)c1ccc(Cl)cc1 (centres undefined),1300 nM,1.5,–
COc1ccc(N(C(C)c2ccccc2OCCCN2CCCC2)S(=O)(=O)c2ccc(Cl)cc2)cc1 (centres undefined),1100 nM,1.8,–
CC(c1ccc(C(=O)c2ccccc2)cc1OCCCN1CCCC1)N(c1ccccc1)S(=O)(=O)c1ccc(Cl)cc1 (centres undefined),17000 nM,0.1,–
CC(c1ccccc1OCCCN1CCCC1)N(c1cccc(C(=O)c2ccccc2)c1)S(=O)(=O)c1ccc(Cl)cc1 (centres undefined),3000 nM,0.7,–
COc1cccc(N(C(C)c2ccccc2OCCCN2CCCC2)S(=O)(=O)c2ccc(Cl)cc2)c1 (centres undefined),530 nM,3.8,–
CCN(CC)CCCOc1ccccc1C(C)N(c1cc(F)ccc1F)S(=O)(=O)c1ccc(Cl)cc1 (centres undefined),1000 nM,–,–
CC(c1ccccc1OCCCN1CCCC1)N(c1ccccc1)S(=O)(=O)c1ccccc1 (centres undefined),690 nM,–,0.01
CC(c1ccccc1OCCCN1CCCC1)N(c1cc(F)ccc1F)S(=O)(=O)c1ccc(Cl)cc1 (centres undefined),2000 nM,–,–
CC(c1ccccc1OCCCN1CCCC1)N(c1ccccc1C(=O)c1ccccc1)S(=O)(=O)c1ccc(Cl)cc1 (centres undefined),1200 nM,1.7,–
CC(c1ccccc1OCCCN1CCCC1)N(c1ccc(C(=O)c2ccccc2)cc1)S(=O)(=O)c1ccc(Cl)cc1 (centres undefined),3200 nM,0.6,–
CC(c1ccccc1OCCCN1CCCCC1)N(c1cc(F)ccc1F)S(=O)(=O)c1ccc(Cl)cc1 (centres undefined),2100 nM,–,–
CC(c1ccccc1OCCCN1CCCC1)N(c1ccccc1)S(=O)(=O)c1ccc(Br)cc1 (centres undefined),1900 nM,–,0.005

# Now from value to compound:
IC50 (Gamma-secretase),Ratio IC50 [1],Ratio IC50 [2],SMILES
10 nM,200,–,CC(c1ccccc1OCCCN1CCCC1)N(c1ccccc1)S(=O)(=O)c1ccc(Cl)cc1 (centres undefined)
530 nM,3.8,–,CC(c1ccccc1OCCCN1CCCC1)N(c1cccc(Cl)c1)S(=O)(=O)c1ccc(Cl)cc1 (centres undefined)
20 nM,100,–,CC(c1ccc(C(=O)c2ccccc2)cc1OCCCN1CCCC1)N(c1cc(F)c(OCC(=O)NCCCCCCCCNC(=O)CCCC[C@@H]2SC[C@@H]3NC(=O)N[C@@H]32)cc1F)S(=O)(=O)c1ccc(Cl)cc1 (some centres undefined)
10 nM,200,–,CC(c1ccc(C(=O)c2ccccc2)cc1OCCCN1CCCC1)N(c1cc(F)c(OCC(=O)NCCCCCNC(=O)CCCC[C@@H]2SC[C@@H]3NC(=O)N[C@@H]32)cc1F)S(=O)(=O)c1ccc(Cl)cc1 (some centres undefined)
130 nM,15,–,CC(c1ccc(C(=O)c2ccccc2)cc1OCCCN1CCCC1)N(c1cc(F)ccc1F)S(=O)(=O)c1ccc(Cl)cc1 (centres undefined)
400 nM,–,0.03,CC(c1ccccc1OCCCN1CCCC1)N(c1ccccc1)S(=O)(=O)c1ccc(C(F)(F)F)cc1 (centres undefined)
490 nM,4,–,CC(c1ccccc1OCCCN1CCCC1)N(c1ccccc1Cl)S(=O)(=O)c1ccc(Cl)cc1 (centres undefined)
2.9 nM,690,–,CC(c1ccc(C(=O)c2ccc(COC(=O)NCCCCCNC(=O)CCCC[C@@H]3SC[C@@H]4NC(=O)N[C@@H]43)cc2)cc1OCCCN1CCCC1)N(c1cc(F)ccc1F)S(=O)(=O)c1ccc(Cl)cc1 (some centres undefined)
470 nM,4.3,–,COc1ccccc1N(C(C)c1ccccc1OCCCN1CCCC1)S(=O)(=O)c1ccc(Cl)cc1 (centres undefined)
6.1 nM,328,–,CC(c1ccc(C(=O)c2ccc(COC(=O)NCCCCCCCCNC(=O)CCCC[C@@H]3SC[C@@H]4NC(=O)N[C@@H]43)cc2)cc1OCCCN1CCCC1)N(c1cc(F)ccc1F)S(=O)(=O)c1ccc(Cl)cc1 (some centres undefined)
350 nM,–,0.03,CC(c1ccccc1OCCCN1CCCC1)N(c1ccccc1)S(=O)(=O)c1ccc(F)cc1 (centres undefined)
